Measured values as given in US7176205B2, “Bi-pyridinyl derivatives as NK-1 antagonists” (Hoffmann-La Roche Inc., priority 2005, dated 2007).
≈ marks a conversion by molar mass, not a printed value.

What was measured:
Equilibrium solubility = assay type: physicochemical; details: citrate buffer, aqueous buffer, thermodynamic from solid; pH 4.2, 0.15 M Citrat-buffer, 21° C.
Method: Method Description Equilibrium Solubility
Equilibrium solubility values were determined at pH 4.2 (0.15 M Citrat-buffer). A known amount of drug, generally 1–2 mg, was added to 250 μl of buffer (glass tubes) and the resulting suspension was stirred for 2 h (21° C.), after 5 minutes of sonification. The pH of the solution was checked and corrected if necessary (in case of pH correction, the solution was once more shaken and equilibrated) and after 24 h the suspension was filtered through a 0.65-μm filter. The filtered solution was then assayed by HPLC to determine the drug concentration. In cases where the drug had completely dissolved in the buffer, the value for equilibrium solubility was assumed to be higher than the value determined by HPLC and was reported as such. Stock solutions (˜1 mg/ml) in DMSO were used in the preparation of a calibration curve in the related buffer using HPLC analytics.

human NK-1 receptor = target: T1, human NK-1 receptor (Homo sapiens, UniProt P25103); experiment: NK-1 receptor binding, [3H]substance P displacement; details: human NK-1 receptors in CHO cells, [3H]substance P 0.6 nM; read-out: pKi(NK-1) (converted)
T1 construct: expressed in transfected cells; host or cells: CHO cells infected using the Semliki virus expression system; membrane suspension
Method: The affinity of test compounds for the NK-1 receptor was evaluated at human NK-1 receptors in CHO cells infected with the human NK-1 receptor (using the Semliki virus expression system) and radiolabelled with [^3H]substance P (final concentration 0.6 nM). Binding assays were performed in HEPES buffer (50 mM, pH 7.4) containing BSA (0.04%) leupeptin (8 μg/ml), MnCl2 (3 mM) and phosphoramidon (2 μM). Binding assays consisted of 250 μl of membrane suspension (1.25×10^5 cells/assay tube), […] of buffer of displacing agent and 125 μl of [^3H]substance P. Displacement curves were determined with at least seven concentrations of the compound. The assay tubes were incubated for 60 min at room temperature after which time the tube contents were rapidly filtered under vacuum through GF/C filters presoaked for 60 min with PEI (0.3%) with 2×2 ml washes of HEPES buffer (50 mM, pH 7.4). The radioactivity retained on the filters was measured by scintillation counting. All assays were performed in triplicate in at least 2 separate experiments.

T1 sequence (P25103 whole entry): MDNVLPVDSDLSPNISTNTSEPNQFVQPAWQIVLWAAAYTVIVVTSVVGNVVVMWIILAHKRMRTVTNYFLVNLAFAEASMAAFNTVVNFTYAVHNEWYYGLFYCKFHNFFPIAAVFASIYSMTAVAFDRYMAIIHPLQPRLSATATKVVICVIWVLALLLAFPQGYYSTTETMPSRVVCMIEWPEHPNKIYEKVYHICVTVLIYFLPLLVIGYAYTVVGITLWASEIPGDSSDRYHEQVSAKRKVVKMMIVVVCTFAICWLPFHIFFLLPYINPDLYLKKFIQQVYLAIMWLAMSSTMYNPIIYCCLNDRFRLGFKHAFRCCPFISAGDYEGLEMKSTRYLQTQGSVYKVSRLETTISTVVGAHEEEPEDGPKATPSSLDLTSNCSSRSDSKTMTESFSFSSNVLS

Row | solubility at 24 h (Equilibrium solubility) [µg/mL] | Ki (human NK-1 receptor) [nM] | SMILES
1 | 495 (≈ 0.899 mM) | – | Cc1ccccc1-c1cc(N2CCN(C)CC2)ncc1C(=O)N(C)Cc1cc(C(F)(F)F)cc(C(F)(F)F)c1 [EP 1 035 115A1example 12, reference compound]
2 | 26 (≈ 0.0449 mM) | 0.977 | Cc1ccccc1-c1cc(N2CCN(C)CC2)ncc1N(C)C(=O)C(C)(C)c1cc(C(F)(F)F)cc(C(F)(F)F)c1 [EP 1 035 115A1example 14, reference compound]
3 | 13700 (≈ 24.8 mM) | 2.75 | Cc1ncccc1-c1cc(N2CCN(C)CC2)ncc1C(=O)N(C)Cc1cc(C(F)(F)F)cc(C(F)(F)F)c1 [Example 1, 2-Methyl-6′-(4-methyl-piperazin-1-yl)-[3,4′]bipyridinyl-3′-carboxylic acid (3,5-bis-trifluoromethyl-benzyl)-methyl-amide]
4 | 7500 (≈ 12.9 mM) | 1.1 | Cc1ncccc1-c1cc(N2CCN(C)CC2)ncc1N(C)C(=O)C(C)(C)c1cc(C(F)(F)F)cc(C(F)(F)F)c1 [Example 2, 2-(3,5-Bis-trifluoromethyl-phenyl)-N-methyl-N-[2-methyl-6′-(4-methyl-piperazin-1-yl)-[3,4′]bipyridinyl-3′-yl]-isobutyramide]
